Experimental data taken from patent US20240166602A1, “SUBSTITUTED DIARYL COMPOUND AS WELL AS PREPARATION METHOD AND APPLICATION THEREOF” (SHANDONG FIRST MEDICAL UNIV & SHANDONG ACADEMY OF MEDICAL …, priority 2021, published 2024).

Columns and labels:
Format in all cases: cell-based
[1] = system: human lung cancer (A549) cells; assay: MTT tumor cell growth inhibition, human lung cancer (A549); conditions: Homo sapiens; A549, 48 h culture, MTT method; read-out: IC50 value of target compound against cancer cell proliferation, A549
Procedure: (§1) Dissolve CHJ compound series with dimethyl sultbxide (DMSO, final concentration 0.4%), and use RPMI-1640 culture medium containing 15% fetal calf serum to prepare 1 mg/mL solution for future use. During drug administration in groups, use the culture medium to dilute it to the concentration needed.
(§2) Cell lines: human lung cancer (A549), Inman ovarian cancer (SKOV3), human melanoma (A375) and human colon cancer (LOVO) cell lines, all purchased from the Cell Bank of the Chinese Academy of Sciences, DMEM containing 15% fetal bovine serum (High Glucose) culture medium, placed in a 37° C., 5% CO2 incubator.
(§3) MTT is an oxidizing yellow dye with the chemical name of 3-(4,5-dimethyl-2-thiazolyl)-2,5-diphenyl-2-H-tetrazoliumbromide tetrazole bromide. The MMT method, also known as the MTT colorimetric method, can test the survival and growth of cells. The method is simple and easily accessible and often used to screet the substance with cytotoxic activity. The basic principle of testing, is that succinodehydrogenase can reduce exogenous MIT so that MTT is reduced to blueviolet crystal Formazan insoluble to water. The crystal deposits in cells. The succinodehydrogenase exists in the mitochondria of living cells, not in the dead cells. Therefore, the chromogenic reaction can only take place in living cells. Then, dissolve the blueviolet crystal Formazan contained in cells with dimethyl sulfoxide (DMSO), and measure its absorbancy with microplate reader so that the count of living cells is reflected indirectly. Within the scope of certain cell count, the amount of blueviolet crystal Formazan formed is positively correlated to the count of living cells.
(§4) Human lung cancer (A549), human ovarian cancer (SKOV3), human melanoma (A375) and human colon cancer (LOVO) ceilsare all adherent. Based on the growth rate of tumor cells, wash the adherent tumor cells in the logarithmic phase and digest them in 0.25% EDTA pancreatic enzyme. Adjust the cell count to 1×10^5/mL and inoculate the cells in 96-pore plate, each pore containing 100 μL. Culture the cells in the 37° C. CO2 incubator, and administer the drug 24 h later. Add pharmaceutical (CJH compound series) of different concentrations to the administration group. Set up 5 dosage groups for each pharmaceutical, respectively 100, 10, 1, 0.1, 0.01 μmol/L. Set up three complex pores for each concentration. Set up blank control, DMSO (0.8%) solvent control and cis-platinum positive control. After 48 h of culture in the 37 ° C. incubator containing 5% CO2, measure the OD value through MTT method and calculate the cell inhibition ratio.
(§5) After 48 h of culture of human lung cancer (A549), human ovarian cancer (SKOV3). human melanoma (A375) and human colon cancer (LOVO) cells, stop it and add 10 μL 0.5% MTT solution to each pore. Place it in the CO2 incubator for 4 h. Remove the liquid from each pore, respectively add 0.2 mL DMSO solution, and oscillate it adequately on the table concentrator under low frequency so that the blueviolet crystal Formazan is dissolved adequately. Place it in the microplate reader and record the OD value at the wavelength of […]. Calculate the average OD value of three parallel pores of different concentrations, and calculate the cell inhibition ratio and IC50 of each tested pharmaceutical under different concentrations based on the average.
(§6) Inhibition ratio (%)=[1-tested sample OD/negative control group OD]×100%.

[2] = system: human ovarian cancer (SKOV3) cells; assay: MTT tumor cell growth inhibition, human ovarian cancer (SKOV3); conditions: Homo sapiens, SK-OV-3; SKOV3, 48 h culture, MTT method; read-out: IC50 value of target compound against cancer cell proliferation, SKOV3
Procedure: as §1, §2, §3, §4, §5, §6

[3] = system: human colon cancer (LOVO) cells; assay: MTT tumor cell growth inhibition, human colon cancer (LOVO); conditions: Homo sapiens, 48 h culture, MTT method, read-out: IC50 value of target compound against cancer cell proliferation, LOVO
Procedure: as §1, §2, §3, §4, §5, §6

[4] = system: human melanoma (A375) cells; assay: MTT tumor cell growth inhibition, human melanoma (A375); conditions: Homo sapiens, A-375; A375, 48 h culture, MTT method; read-out: IC50 value of target compound against cancer cell proliferation, A375
Procedure: as §1, §2, §3, §4, §5, §6

Compound	IC50 [1] [nM]	IC50 [2] [nM]	IC50 [3] [nM]	IC50 [4] [nM]
COc1cc(CN(C)CC(O)COc2c(Cl)cccc2Cl)ccc1OCCN1CCC(C)CC1 (centres unmarked) [CHJ02029, 1-(2,6-dichlorophenoxy)-3-((3-methoxy-4-(2-(4-methylpiperidin-1-yl)ethoxy)benzyl) (methyl)amino)propan-2-ol]	3550 ± 60	6300 ± 160	1870 ± 20	2430 ± 120
COc1cc(CN(C)CC(O)COc2ccc(Br)c(C(F)(F)F)c2)ccc1OCCN1CCC(C)CC1 (centres unmarked) [CHJ02049, 1-(4-bromo-3-(trifluoromethyl)phenoxy)-3-((3-methoxy-4-(2-(4-methylpiperidin-1-yl)ethoxy)benzyl)(methyl)amino)propan-2-ol]	520 ± 230	620 ± 80	1250 ± 30	620 ± 40
COc1cc(CN(C)CC(O)COc2cc(C(F)(F)F)ccc2C(F)(F)F)ccc1OCCN1CCC(C)CC1 (centres unmarked) [CHJ02050, 1-(2,5-bis(trifluoromethyl)phenoxy)-3-((3-methoxy-4-(2-(4-methylpiperidin-1-yl)ethoxy)benzyl)(methyl)amino)propan-2-ol]	1090 ± 1550	4040 ± 60	3880 ± 1800	1870 ± 70
COc1cc(CN(C)CC(O)COc2cccc(Br)c2)ccc1OCCN1CCC(C)CC1 (centres unmarked) [CHJ03001, 1-(3-bromophenoxy)-3-((3-methoxy-4-(2-(4-methylpiperidin-1-yl)ethoxy)benzyl) (methyl)amino)propan-2-ol]	1300 ± 1030	2480	1260 ± 530	1950 ± 330
COc1cc(CN(C)CC(O)COc2ccccc2Br)ccc1OCCN1CCC(C)CC1 (centres unmarked) [CHJ03003, 1-(2-bromophenoxy)-3-((3-methoxy-4-(2-(4-methylpiperidin-1-yl)ethoxy)benzyl) (methyl)amino)propan-2-ol]	6080 ± 900	3000 ± 990	700 ± 260	5950 ± 420
COc1cc(CN(C)CC(O)COc2ccccc2C(C)C)ccc1OCCN1CCC(C)CC1 (centres unmarked) [CHJ03004, 1(2-isopropylphenoxy)-3-((3-methoxy-4-(2-(4-methylpiperidin-1yl)ethoxy)benzyl) (methyl)amino)propan-2-ol]	2100 ± 1250	6190 ± 250	2540 ± 100	720 ± 800
COc1cc(CN(C)CC(O)COc2ccc(Br)cc2OC)ccc1OCCN1CCC(C)CC1 (centres unmarked) [CHJ03005, 1-(4-bromo-2-methoxypbenoxy)-3-((3-methoxy-4-(2-(4-methylpiperidin-1-yl)ethoxy)benzyl)(methyl)amino)propan-2-ol]	15600 ± 160	3990 ± 210	6660 ± 110	5600 ± 810
COc1cc(CN(C)CC(O)COc2ccc(Br)cc2)ccc1OCCN1CCC(C)CC1 (centres unmarked) [CHJ03014]	1090 ± 60	6190 ± 620	530 ± 150	
COc1cc(CN(C)CC(O)COc2cccc(C(C)C)c2)ccc1OCCN1CCC(C)CC1 (centres unmarked) [CHJ03015, 1-(3-isopropylphenoxy)-3-((3-methoxy-4-(2-(4-methylpiperidin-1-yl)ethoxy)benzyl) (methyl)amino)propan-2-ol]	1030 ± 130	4470 ± 1620	550 ± 210	
COc1cccc(OCC(O)CN(C)Cc2ccc(OCCN3CCC(C)CC3)c(OC)c2)c1 (centres unmarked) [CHJ03017, 1-((3-methoxy-4-(2-(4-methylpiperidin-1-yl)ethoxy)benzyl)(methyl)amino)-3-(3-methoxyphenoxy)propan2-ol]	17200 ± 790	6210 ± 1040	2440 ± 30	8680 ± 110
COc1cc(CN(C)CC(O)COc2cc(Br)ccc2F)ccc1OCCN1CCC(C)CC1 (centres unmarked) [CHJ03018]	18800 ± 1060	1790 ± 230	1720 ± 1580	3130 ± 60
COc1cc(CN(C)CC(O)COc2ccc(Cl)c(Br)c2)ccc1OCCN1CCC(C)CC1 (centres unmarked) [CHJ03043, 1-(3-bromo-4-chlorophenoxy)-3-((3-methoxy-4-(2-(4-methylpiperidia-1-yl)ethoxy)benzyl)(methyl)amino)propan-2-ol]	2500 ± 1320	2900 ± 190	950 ± 410	540 ± 260
COc1cc(CN(C)CC(O)COc2ccc(C)c(Br)c2)ccc1OCCN1CCC(C)CC1 (centres unmarked) [CHJ04010, 1-(3-bromo-4-methylphenoxy)-3-((3-methoxy-4-(2-(4-methylpiperidin-1-yl)ethoxy)benzyl)(methyl)amino)propan-2-ol]		4960 ± 1260	2780 ± 230	450 ± 460
COc1cc(CN(C)CC(O)COc2cc(C(F)(F)F)ccc2Br)ccc1OCCN1CCC(C)CC1 (centres unmarked) [CHJ04011]	4050 ± 1120	2410 ± 1030	1010 ± 80	480 ± 280
COc1cc(CN(C)CC(O)COc2cc(Cl)cc(Cl)c2)ccc1OCCN1CCC(C)CC1 (centres unmarked) [CHJ04012, 1-(3,5-dichlorophenoxy)-3-((3-methoxy-4-(2-(4-methylpiperidin-1-yl)ethoxy)benzyl) (methyl)amino)propan-2-ol]	6380 ± 70	4340 ± 320	2120 ± 40	1240 ± 1010
COc1cc(CN(C)CC(O)COc2ccc(F)c(Br)c2)ccc1OCCN1CCC(C)CC1 (centres unmarked) [CHJ04020, 1-(3-bromo-4-fluorophenoxy)-3-((3-methoxy-4-(2-(4-methylpiperidin-1-yl)ethoxy)benzyl)(methyl)amino)propan-2-ol]	1380 ± 1140	3400 ± 1170	3830 ± 1800	1600 ± 920
COc1cc(CN(C)CC(O)COc2cc(F)cc(Br)c2)ccc1OCCN1CCC(C)CC1 (centres unmarked) [CHJ04023]	5440 ± 2540	8030 ± 2770	3070 ± 1620	810 ± 330
COc1cc(CN(C)CC(O)COc2cccc(Cl)c2)ccc1OCCN1CCC(C)CC1 (centres unmarked) [CHJ04024]	5450 ± 1030	1370 ± 340	18600 ± 3220	980 ± 760
COc1cc(CN(C)CC(O)COc2cccc(C(F)(F)F)c2)ccc1OCCN1CCC(C)CC1 (centres unmarked) [CHJ04025, 1-((3-methoxy-4-(2-(4-methylpiperidin-1-yl)ethoxy)benzyl)(methyl)amino)-3-(3-(trifluoromethyl)phenoxy)propan-2-ol]	4210 ± 2240	3320 ± 1020	2550 ± 1650	2340 ± 1630
COc1cc(CN(C)CC(O)COc2ccc(Cl)c(Cl)c2)ccc1OCCN1CCC(C)CC1 (centres unmarked) [CHJ04026, 1-(3,4-dichlophenoxy)-3-((3-methoxy-4-(2-(4-methylpiperidin-1-yl)ethoxy)benzyl) (methyl)amino)propan-2-ol]	970 ± 210	7450 ± 2260	820 ± 420	1500 ± 60
COc1cc(CN(C)CC(O)COc2ccccc2I)ccc1OCCN1CCC(C)CC1 (centres unmarked) [CHJ04027]	6220 ± 1340	3020 ± 1760	2350 ± 1040	730 ± 130
COc1cc(CN(C)CC(O)COc2c(Cl)cc(Br)cc2Cl)ccc1OCCN1CCC(C)CC1 (centres unmarked) [CHJ04033, 1-(4-bromo-2,6-dichlorophenoxy)-3-((3-methoxy-4-(2-(4-methylpiperidin-1-yl)ethoxy)benzyl)(methyl)amino)propan-2-ol]	950 ± 370	6220 ± 3050	2230 ± 1260	920 ± 70
COc1cc(CN(C)CC(O)COc2cc(C(F)(F)F)ccc2Br)ccc1OCCN1CCCC1 (centres unmarked) [CHJ04065, 1-(-bromo-5-(trifluoromethyl)phenoxy)-3-((3-methoxy-4-(2-(pyrrolidin-1-yl)ethoxy)benzyl)(methyl)amino)propan-2-ol]	25500 ± 2110	27100 ± 1620	3140 ± 1060	
COc1cc(CN(C)CC(O)COc2ccccc2OC)ccc1OCCN1CCC(C)CC1 (centres unmarked) [CHJ04086]				34700 ± 3420
